Patent publication US20260115250A1, “METHODS OF TREATING AGE-RELATED MACULAR DEGENERATION” (Character Biosciences, Inc., priority 2022, published 2026)
Peptide text beside a SMILES is read from it.

Columns and labels:
[1] = DMPC solubility assay, 0.5 mM DMPC (turbidity reduction); assay type: biochemical
How it was run: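 Peptides (100 μM final, or 3.16-100 μM for titrations) incubated with 0.5 mM DMPC in water for 15 minutes at room temperature. Turbidity read as absorbance at 405 nm; EC50 from non-linear regression, mean+SD over two runs.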

ARPE-19 cells = experiment: ARPE-19 GAG-dependent cholesterol import (with or without heparin); assay type: cell-based, human; conditions: ARPE-19, 10 μM peptide
Experimental: ARPE-19 cells were seeded on 96-well plates at 25,000 cells per well and grown to confluence. A 2× solution of 500 μM DMPC and 50 μM BODIPY-Cholesterol with or without 100 µg/mL heparin was prepared in serum free DMEM: F12. Peptides were diluted to 20 μM in serum free DMEM: F12 (a 2× solution). Peptides were added to lipid solution in equal parts (60 μL each) and incubated for 1 hour at 37° C. ARPE-19 cells were serum starved in serum free DMEM: F12 for 1 hour at 37° C. Peptide: Lipid complexes (100 μL total volume per well) were transferred to ARPE-19 cells for 2 hours at 37° C. Cells were washed, fixed, and intracellular fluorescence was read on Promega GloMax at 475 nm excitation, 500-550 emission. Fluorescence values were background corrected from no treatment conditions. Data are presented ±SD for 2 runs.

CC[C@H](C)[C@H](NC(=O)CNC(=O)[C@H](CO)NC(=O)[C@@H](NC(=O)[C@H](Cc1c[nH]c2ccccc12)NC(=O)[C@H](Cc1c[nH]cn1)NC(=O)[C@H](CCC(=O)O)NC(=O)[C@H](Cc1ccccc1)NC(=O)[C@H](CCCNC(=N)N)NC(=O)[C@H](CC(C)C)NC(=O)[C@H](CC(C)C)NC(=O)[C@H](CCCNC(=N)N)NC(=O)[C@H](CCCCN)NC(=O)[C@H](CCCNC(=N)N)NC(=O)[C@H](CC(C)C)NC(=O)[C@H](CCCCN)NC(=O)[C@H](CCCNC(=N)N)NC(=O)[C@H](CC(C)C)NC(=O)[C@@H](N)Cc1c[nH]cn1)[C@@H](C)CC)C(=O)N[C@@H](Cc1ccc(O)cc1)C(=O)N[C@@H](CO)C(=O)N[C@@H](CCC(=O)O)C(=O)N[C@@H](CS)C(=O)N[C@@H](CCCCN)C(=O)N[C@@H](Cc1c[nH]cn1)C(=O)N[C@@H](CC(C)C)C(=O)N[C@H](C(=O)N[C@@H](CCC(N)=O)C(=O)N[C@@H](CCC(=O)O)C(=O)O)[C@@H](C)CC [T-025] (H-HLRKLRKRLLRFEHWISGIYSECKHLIQE-OH; N-terminus and C-terminus assumed)
EC50 ([1]; 3.16-100 μM peptides, 15 minutes): 25.3 µM
DMPC solubilizing activity ([1]; FIGS. 2A-2D and 3A-3C): significant activity
GAG dependence of cholesterol import (ARPE-19 cells): rely on GAG binding for cholesterol import activity
